The results in this text go back to patent US9493451B2 (Bionomics Limited, priority 2011, dated 2016).

The assay addresses T1, Kv1.3 (Homo sapiens, UniProt P22001).
T1 construct: expressed in transfected cells; host or cells: CHO (Kv1.3/CHO)
Put plainly: Electrophysiology: planar patch-clamp of Kv1.3 currents, IC50 from steady state current amplitude. The conditions noted are these: Kv1.3 electrophysiology, results according to Method D1, read-out: IC50 (Kv1.3 ephys steady state). Format: cell-based. How it is done:
The inhibition data shown for the compounds of the list below was calculated using the steady state current amplitude at the end of the depolarising pulse in patch clamp evaluations (as described in the Biology Protocols: 1. Electrophysiology).
Kv1.x currents were measured in Kv1.3/CHO or Kv1.5/CHO cells using a planar electrode version (Nanion Technologies GMBH) of the patch-clamp technique. Whole-cell Kv1.x current transients were evoked by 500 ms depolarising voltage pulses to +40 mV from a holding potential of −80 mV applied at 10 s intervals for Kv1.5 and at 30 s intervals for Kv1.3 to allow adequate time for recovery from inactivation. Cells were continuously bathed in a buffered saline solution containing (mM): 160 NaCl, 4.5 KCl, 2 CaCl2, 1 MgCl2, 5 glucose, 10 HEPES, pH 7.4, 290-310 mOsm·Kg^−1. The internal (pipette) solution contained (mM): 10 NaCl, 70 KF, 75 KCl, 2 MgCl2, 10 HEPES, 10 EGTA, pH 7.2, 290-310 mOsm·Kg^−1. Series resistance compensation (60-80%) was applied to cells in which the peak current amplitude exceeded 2 nA.
Compound Preparation and Potency Assessment
Compounds were initially dissolved in DMSO to 10 mM. After further dilution in DMSO, compounds were finally diluted in bath solution 1/200 (to give a final DMSO concentration of 0.5%) and applied directly to the recording chamber. Compounds were added at increasing concentrations allowing ample time for steady state block to be achieved between each concentration. Each compound was tested at 5-6 different concentrations on 2-3 cells. Compound IC50 values were determined by fitting the average normalised reduction of either the current integral or the steady state current amplitude at the end of the 500 ms depolarising pulse obtained at each compound concentration to the Hill equation. The IC50 data reported herein is based on the steady state calculation.

T1 sequence (P22001 whole entry): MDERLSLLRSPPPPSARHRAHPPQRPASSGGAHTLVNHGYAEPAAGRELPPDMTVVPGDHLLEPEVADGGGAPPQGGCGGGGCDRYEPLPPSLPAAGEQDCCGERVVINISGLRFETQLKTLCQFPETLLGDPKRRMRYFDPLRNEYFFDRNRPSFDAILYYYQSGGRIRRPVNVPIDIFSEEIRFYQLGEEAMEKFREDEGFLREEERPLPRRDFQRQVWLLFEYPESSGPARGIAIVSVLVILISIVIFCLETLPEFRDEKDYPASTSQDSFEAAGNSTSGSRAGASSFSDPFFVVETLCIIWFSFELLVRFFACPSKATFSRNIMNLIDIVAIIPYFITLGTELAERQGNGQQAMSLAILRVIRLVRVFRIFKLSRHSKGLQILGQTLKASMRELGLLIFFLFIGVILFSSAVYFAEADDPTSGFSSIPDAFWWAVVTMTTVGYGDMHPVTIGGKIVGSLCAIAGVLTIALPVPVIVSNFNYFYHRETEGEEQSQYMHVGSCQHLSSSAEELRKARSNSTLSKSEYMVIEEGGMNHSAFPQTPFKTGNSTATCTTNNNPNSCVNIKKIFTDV

For the compound `O=C(C1CC1c1ccc(F)c(F)c1)N(Cc1cccnn1)C(c1ccc(OC(F)F)cc1)C1CC1` (stereo not drawn) [Example 180], the IC50 is 50 to 200 nM. Consider `CN1C2CCC1CC(N(C(=O)CS(=O)(=O)c1ccccc1)C(c1ccc(Cl)cc1)C1CC1)C2` (racemic) [Example 93, N-[(4-chlorophenyl)(cyclopropyl)methyl]-N-(8-methyl-8-azabicyclo[3.2.1]oct-3-yl)-2-(phenylsulfonyl)acetamide], for which the IC50 lay in the range of 50 to 200 nM.

Turning to `CC(C)(C(=O)N(Cc1cccnn1)C(c1ccc(OC(F)F)cc1)C1CC1)S(=O)(=O)c1ccc(F)cc1` (stereo not drawn) [Example 311], the IC50 was 200 to 1000 nM. For the compound `CC(C)S(=O)(=O)c1cccc(C(C2CC2)N(Cc2cccnn2)C(=O)C2CC2c2ccc(F)cc2)c1` (stereo not drawn) [Example 241], the IC50 was in the range of 200 to 1000 nM. As for `O=C(C1CC1c1cccc(C(F)(F)F)c1)N(Cc1cccnn1)C(c1ccc(OC(F)F)cc1)C1CC1` (stereo not drawn) [Example 184], the figure is 200 to 1000 nM; as for `O=C(CS(=O)(=O)c1ccccc1)N(Cc1ncccc1F)C(c1ccc(OC(F)F)cc1)C1CC1` (stereo not drawn) [Example 304], 50 to 200 nM; as for `CC(C)S(=O)(=O)c1cccc(C(C2CC2)N(Cc2ccc(F)cn2)C(=O)C2CC2c2ccc(F)cc2)c1` (stereo not drawn) [Example 242], 50 to 200 nM. The value for `CN1CC(C(c2ccc(OC(F)(F)F)cc2)N(Cc2cncc(F)c2)C(=O)C2CC2c2ccc(F)cc2)C1` (stereo not drawn) [Example 162] was 200 to 1000 nM; that for `CCS(=O)(=O)c1ccc(C(C2CC2)N(Cc2cccnn2)C(=O)C2CC2c2ccc(F)cc2)cc1` (stereo not drawn) [Example 231] was 50 to 200 nM. In the case of `CC(CC(=O)N(Cc1ccc(C(F)(F)F)nc1)C(C)c1ccc2c(c1)CCC2)c1ccc(F)cc1` (single isomer, unassigned) [Compound 40, N-[1-(2,3-dihydro-1H-inden-5-yl)ethyl]-3-(4-fluorophenyl)-N-{[6-(trifluoromethyl)pyridin-3-yl]methyl}butanamide], the IC50 lay within 50 to 200 nM. As for `CC(C)C(c1ccc(F)cc1)N(CCC1CCNCC1)C(=O)CS(=O)(=O)c1ccc(F)cc1` (stereo not drawn) [Example 284], the figure is 200 to 1000 nM. As for `O=C(C1CC1c1ccc(F)cc1)N(Cc1ccc(F)cn1)C(c1ccc(S(=O)(=O)C2CC2)cc1)C1CC1` (stereo not drawn) [Example 250], the figure is 200 to 1000 nM; as for `CCC(c1ccc(S(=O)(=O)C(C)C)cc1)N(Cc1cccnn1)C(=O)C1CC1c1ccc(F)cc1` (stereo not drawn) [Example 130], 200 to 1000 nM.

Turning to `O=C(C1CC1c1ccc(F)cc1F)N(Cc1cccnn1)C(c1ccc(OC(F)F)cc1)C1CC1` (stereo not drawn) [Example 182], the IC50 lay in the range of 50 to 200 nM. As for `O=C(C1CC1c1ccc(F)cc1)N(Cc1ncccc1F)C(c1ccc(F)cc1)C1CNC1` (stereo not drawn) [Example 157], the figure is 200 to 1000 nM; as for `O=C(CS(=O)(=O)c1ccccc1)N(Cc1ccc(C(F)(F)F)nc1)C(c1ccc(F)cc1)C1CCCO1` (stereo not drawn) [Example 282], 50 to 200 nM.

`CCS(=O)(=O)c1ccc(C(C2CC2)N(Cc2ccc(F)cn2)C(=O)C2CC2c2ccc(F)cc2)cc1` (stereo not drawn) [Example 232]: the IC50 lay in the range of 50 to 200 nM. Turning to `CC(C)S(=O)(=O)c1cccc(C(C2CC2)N(Cc2ccc(F)cn2)C(=O)C2CC2c2ccc(F)cc2)c1` (stereo not drawn) [Example 243], the half-maximal inhibitory concentration (IC50) was 50 to 200 nM.

On to `O=C(CS(=O)(=O)c1ccc(F)cc1)N(Cc1ccc(F)nc1)C(c1ccc(Cl)cc1)C1CC1` (stereo not drawn) [Example 291], for which the IC50 fell in the range of 50 to 200 nM. Regarding `CCC(c1ccc(S(=O)(=O)CC)cc1)N(Cc1ccc(F)cn1)C(=O)C1CC1c1ccc(F)cc1` (stereo not drawn) [Example 117], the IC50 was in the range of 50 to 200 nM.

In the case of `CC(C)S(=O)(=O)c1cccc(C(C2CC2)N(Cc2ncccc2F)C(=O)C2CC2c2ccc(F)cc2)c1` (stereo not drawn) [Example 245], the IC50 lay in the range of 200 to 1000 nM. As for `CCC(c1ccc(S(C)(=O)=O)cc1)N(Cc1ccc(C(F)(F)F)nc1)C(=O)C1CC1c1ccc(F)cc1F` (stereo not drawn) [Example 127], the figure is 50 to 200 nM; as for `CCC(c1ccc(S(C)(=O)=O)cc1)N(Cc1ccc(F)cn1)C(=O)C1CC1c1ccc(F)cc1` (stereo not drawn) [Example 122], 50 to 200 nM. Take `CC(C)S(=O)(=O)c1ccc(C(C2CC2)N(Cc2ccc(F)cn2)C(=O)C2CC2c2ccc(F)cc2)cc1` (stereo not drawn) [Example 238]: the IC50 was 50 to 200 nM.

With `CC(C)S(=O)(=O)c1ccc(C(C2CC2)N(Cc2ncccc2F)C(=O)C2CC2c2ccc(F)cc2)cc1` (stereo not drawn) [Example 235], the IC50 is 200 to 1000 nM. `CSc1cccc(CN(C(=O)C2CC2c2ccc(F)cc2)C(c2ccc(Cl)cc2)C2CC2)n1` (stereo not drawn) [Example 254]: the concentration for half-maximal inhibition (IC50) fell in the range of 50 to 200 nM. The value for `CN1CCC(C(c2ccc(OC(F)F)cc2)N(C(=O)C2CC2c2ccc(F)cc2)C2CCOCC2)CC1` (stereo not drawn) [Example 140] was 1000 to 2000 nM; that for `CC(C(=O)N(Cc1ccccn1)C(c1ccc(Cl)cc1)C1CC1)S(=O)(=O)c1ccc(F)cc1` (single isomer, unassigned) [Example 296] was under 50 nM. As for `O=C(CS(=O)(=O)c1cccc(C(F)(F)F)c1)N(Cc1cccnn1)C(c1ccc(OC(F)F)cc1)C1CC1` (stereo not drawn) [Example 310], the figure is 200 to 1000 nM; as for `CCS(=O)(=O)c1cccc(C(C2CC2)N(Cc2cccnn2)C(=O)C2CC2c2cccc(C(F)(F)F)c2)c1` (stereo not drawn) [Example 225], 200 to 1000 nM; as for `CN1CCC(C(c2ccc(OC(F)F)cc2)N(Cc2ccc(F)cn2)C(=O)C2CC2c2ccc(F)cc2)CC1` (stereo not drawn) [Example 142], 200 to 1000 nM. For the compound `CCS(=O)(=O)c1cccc(C(C2CC2)N(Cc2cccnn2)C(=O)C2CC2c2cccc(C(F)(F)F)c2)c1` (stereo not drawn) [Example 226], the IC50 lay within 200 to 1000 nM. In the case of `CC(C)S(=O)(=O)c1cccc(C(C2CC2)N(Cc2cccnn2)C(=O)C2CC2c2ccc(F)cc2)c1` (stereo not drawn) [Example 240], the IC50 was 200 to 1000 nM.

For `CCS(=O)(=O)c1cccc(CN(C(=O)C2CC2c2ccc(F)cc2)C(c2ccc(Cl)cc2)C2CC2)n1` (stereo not drawn) [Example 253], the IC50 was under 50 nM.

Consider `CN1CC(C(c2ccc(F)cc2)N(Cc2ncccc2F)C(=O)C2CC2c2ccc(F)cc2)C1` (stereo not drawn) [Example 155], for which the IC50 lay in the range of 200 to 1000 nM.

As for `O=C(N(Cc1ccccn1)[C@@H](c1ccc(OC(F)F)cc1)C1CC1)C1(S(=O)(=O)c2ccc(F)cc2)CC1` [Example 91, N-{cyclopropyl[4-(difluoromethoxy)phenyl]methyl}-1-[(4-fluorophenyl)sulfonyl]-N-(pyridin-2-ylmethyl)cyclopropanecarboxamide], the IC50 was in the range of 200 to 1000 nM. Turning to `CCS(=O)(=O)c1cccc(C(C2CC2)N(Cc2ccncn2)C(=O)C2CC2c2ccc(F)cc2)c1` (stereo not drawn) [Example 192], the IC50 lay within 200 to 1000 nM. As for `CC(CC(=O)N(Cc1ccc(F)cn1)C(c1ccc(F)cc1F)C1CCN(C)CC1)c1ccc(F)cc1` (stereo not drawn) [Example 271], the figure is 200 to 1000 nM; as for `CC(C)S(=O)(=O)c1ccc(C(C2CC2)N(Cc2ccc(F)cn2)C(=O)C2CC2c2ccc(F)cc2)cc1` (stereo not drawn) [Example 239], 200 to 1000 nM. `O=C([C@@H]1C[C@H]1c1ccc(F)cc1)N(Cc1cccnn1)[C@H](c1ccc(OC(F)F)cc1)C1CC1` [Example 98, (1R,2R)-2-(4-Fluoro-phenyl)-cyclopropanecarboxylic acid [(S)-cyclopropyl-(4-difluoromethoxy-phenyl)-methyl]-pyridazin-3-ylmethyl-amide]: the IC50 lay within 50 to 200 nM. The value for `CC(CC(=O)N(Cc1ccccn1)C(c1ccc2c(c1)S(=O)(=O)C(C)(C)O2)C1CC1)c1ccc(F)cc1` (single isomer, unassigned) [Example 74, N-[cyclopropyl(2,2-dimethyl-3,3-dioxido-1,3-benzoxathiol-5-yl)methyl]-3-(4-fluorophenyl)-N-(pyridin-2-ylmethyl)butanamide] was under 50 nM. The value for `CC(C)C(c1ccc(OC(F)F)cc1)N(Cc1ccc(F)cn1)C(=O)C1CC1c1ccc(F)cc1` (stereo not drawn) [Example 111] was 50 to 200 nM; that for `CC(C)S(=O)(=O)c1cccc(C(C2CC2)N(Cc2ncccc2F)C(=O)C2CC2c2ccc(F)cc2)c1` (stereo not drawn) [Example 246] was 200 to 1000 nM; that for `CCS(=O)(=O)c1ccc(C(C2CC2)N(Cc2ccc(F)cn2)C(=O)C2CC2c2ccc(F)cc2F)cc1` (stereo not drawn) [Example 230] was 50 to 200 nM. On to `O=C(CS(=O)(=O)c1ccccc1)N(Cc1ccc(C(F)(F)F)nc1)C(c1ccc(OC(F)F)cc1)C1CC1` (stereo not drawn) [Example 301], for which the 50% inhibitory concentration (IC50) lay within 50 to 200 nM.

Consider `CC(C)(C(=O)N(Cc1cccnn1)C(c1ccc(OC(F)F)cc1)C1CC1)S(=O)(=O)c1ccc(F)cc1` (stereo not drawn) [Example 308], for which the IC50 fell in the range of 50 to 200 nM.

For `CN1CCC(C(c2ccc(F)cc2F)N(Cc2ncccc2F)C(=O)C2CC2c2ccc(F)cc2)CC1` (stereo not drawn) [Example 145], the IC50 was 200 to 1000 nM.

As to `O=C(C1CC1c1ccc(F)cc1)N(Cc1cccnn1)C(c1ccc(F)cc1)C1CCOC1` (stereo not drawn) [Example 173], the IC50 is 50 to 200 nM. As for `CN1CC(C(c2ccc(OC(F)F)cc2)N(Cc2ncccc2F)C(=O)C2CC2c2ccc(F)cc2)C1` (stereo not drawn) [Example 151], the figure is 200 to 1000 nM; as for `Cn1cncc1CN(C(=O)C1CC1c1ccc(F)cc1)C(c1ccc(OC(F)F)cc1)C1CC1` (stereo not drawn) [Example 189], 200 to 1000 nM; as for `N#Cc1cccc(C(C2CC2)N(Cc2ncccc2F)C(=O)C2CC2c2ccc(F)cc2)c1` (stereo not drawn) [Example 252], 50 to 200 nM.
